Laboratory results published in US20050019746A1, “Apoptosis-related kinase/GPCRs” (EiRx Therapeutics Limited, priority 2003, published 2005).
Entries after “also recorded” stand apart in the source; their conditions may differ.

What was measured:
Assay type in all cases: cell-based, human
[1] = tested on: target gene mRNA in PC3 cells; experiment: Validation of siRNA efficacy by QPCR in PC3 cells; settings: PC3, siRNA 50 nM, RNAiFect, 24 hours post transfection, relative to non-silencing control, normalised to GAPDH
Method: To evaluate the ability of each siRNA oligonucleotides to knock down its intended target, each siRNA was validated in a cell line known to express the target, in this example the genes were tested PC3 cells, which were shown by expression profiling to express all target genes. The efficacy of knockdown was measured using QPCR. Cells are plated at a density of 2×10^4 cells in each well of a 24 well plate and incubated at 37° C. overnight. The siRNA is transfected into cells using RNAiFect reagent (Qiagen) with siRNA at a concentration of 50 nM according to manufacturer's instructions. Additional wells of cells are transfected with 50 nM of a non-silencing control (Qiagen). […] Transfected cells are harvested at 24 hours post transfection, and RNA extracted using RNeasy Miniprep columns with an on-column DNase digestion step. The RNA is eluted in 30 μl of RNase-free H2O. cDNA is synthesised from 12 μl of this RNA using an anchored oligo(dT) primer (Sigma) and Transcriptor reverse transcriptase (Roche) at 55° C. in a total volume of 20 μl following the manufacturer's instructions. The resulting cDNA is diluted to a total of 200 μl with H2O and 10 μl used in each QPCR reaction. The levels of transcript are compared by QPCR, relative to the non-silencing control. QPCR is performed using primers, conditions and methodology identical to those used for expression profiling, see Table 8. All reactions were performed in duplicate and the average Ct values calculated. For each sample, the Ct of each target gene in normalised to GAPDH. Relative expression between cells transfected with target or non-silencing siRNA, normalised to GAPDH expression, is determined by the comparative Ct method.

[2] = tested on: DU145, PC3, HCT116 cells; experiment: Annexin V apoptosis assay (Guava Nexin); settings: DU145, HCT116 or PC3, siRNA 50 nM, relative to mock transfected, FIG. 34
Text: Apoptosis or programmed cell death is an important and active regulatory pathway of cell growth and proliferation. Cells respond to specific induction signals by initiating intracellular processes that result in characteristic physiological changes. Among these are externalisation of phosphotidylserine (PS) to the cell surface, cleavage and degradation of specific cellular proteins, compaction and fragmentation of nuclear chromatin and loss of membrane integrity (in late stages). Annexin V is a calcium-dependant phospholipid binding protein with a high affinity for phosphotidyl serine (PS), a membrane component normally localised to the internal face of the cell membrane. Early in the apoptotic pathway molecules of PS are translocated to the outer surface of the cell membrane where Annexin V can readily bind to them.
Annexin V assays are performed using the Guava Nexin Assay, which utilises Annexin V-PE to detect PS on the external membrane of apoptotic cells. The cell impermeant dye 7-AAD is included in the assay as an indicator of membrane structural integrity as it is excluded from live and early apoptotic cells but permeates late stage apoptotic and dead cells. Assays are performed using a Guava Technologies Personal Cytometer and Guava Nexin Kit (catalogue no. 4500-0010, Guava Technologies Inc) using a modification of the manufacturer's protocol, where cells are transfected with siRNA in 24-well plates and assays performed at 24, 48 and 72 hours post-transfection.
Cells (DU145, PC3 & HCT116) are plated at a density of 20000 cells/well in 500 μl medium in 24-well plates and incubated overnight at 37° C. in a humidified atmosphere containing 5% CO2. […]
The 500 μl of media is decanted from the cells and combined with 150 μl of PBS used to wash them. […] Then, 450 μl 1× Nexin Buffer is added to the cells and the cell population analysed using the Guava Personal Cytometer following the manufacturer's instructions. […] The total number of early and late apoptotic cells is measured and the relative number of apoptotic cells calculated. […]

[3] = tested on: cancer cell lines; experiment: Anchorage Independence/Soft Agar Assay, summary over the cell lines; settings: 14-day anchorage independent assay, over the cell lines examined
Method: The Anchorage Independence/Soft Agar Assay allows assessment of the influence of modulation of gene expression on clonal tumouroid formation by observing and quantifying tumouroid morphology and colony number over an extended period of logarithmic growth thereby ascertaining any cell death is induced.
Cells are seeded into a 6-well plate and allowed to adhere overnight at 37° C. in a humidified atmosphere containing 5% CO2 in air. Cells are next transfected with siRNA Oligomers, at a concentration of 2 μg, against the genes of interest. Transfections continued for 4 hrs after which the transfection solution is removed and cells are refed with fresh medium and allowed incubate overnight. Transfected cells are next harvested for seeding into soft agar assay as described below. Cells are seeded at 5×10^4 cells per well of a 6 well plate and incubated over a 12/14-Day period whilst proliferating in a 0.05% Agar/Medium cell suspension at 37° C. in a humidified atmosphere containing 5% CO2 in air. Colonies formed are subsequently stained with Crystal Violet, their morphology is assessed and colonies formed are enumerated at a 4× magnification.
The cytotoxic effect of each gene is determined by a reduction in colony number compared to our MS control, but any influence on the morphology of the colony is also noted.
As an internal reference, the known survival gene ‘Survivin’ was also targeted by siRNA.

Row | Substance | Decrease in expression of target gene [1] [%] | apoptosis by Annexin V staining [2] | cell death / apoptosis in the soft agar assay [3]
1 | siRNA EKI: siRNA duplex, sense GCACUGGAUCCAAAGCAUGtt, antisense CAUGCUUUGGAUCCAGUGCtt; same in Tables 9 and 11 (sense GCACUGGAUCCAAAGCAUGTT; antisense CAUGCUUUGGAUCCAGUGCTT; chemistry not given here) | 76.0 | undergo apoptosis | 
2 | siRNA GRAF: siRNA duplex, sense GCGGAAGUUUGCAGAUUCCtt, antisense GGAAUCUGCAAACUUCCGCtt; same in Tables 9 and 11 (sense GCGGAAGUUUGCAGAUUCCTT; antisense GGAAUCUGCAAACUUCCGCTT; chemistry not given here) | 64.5 |  | 
3 | siRNA MKNK: sense UACAUGGCCCCUGAGGUAGtt, antisense CUACCUCAGGGGCCAUGUAtt (sense UACAUGGCCCCUGAGGUAGTT; antisense CUACCUCAGGGGCCAUGUATT; chemistry not given here) |  |  | induced cell death consistently in 2 of the cell lines examined
4 | siRNA MPSK1: sense GGGUUAUGCCCACAGAGACtt, antisense GUCUCUGUGGGCAUAACCCtt (sense GGGUUAUGCCCACAGAGACTT; antisense GUCUCUGUGGGCAUAACCCTT; chemistry not given here) |  |  | significant cell death in all cell lines
5 | siRNA NTKL: siRNA duplex, sense UGUGGAGCUGAUGAAGCACtt, antisense GUGCUUCAUCAGCUCCACAtt; same in Tables 9 and 11 (sense UGUGGAGCUGAUGAAGCACTT; antisense GUGCUUCAUCAGCUCCACATT; chemistry not given here) | 82.9 | undergo apoptosis | 
6 | siRNA PSKH1: sense GAACCUGCACCGCUCCAUAtt, antisense UAUGGAGCGGUGCAGGUUCtt (sense GAACCUGCACCGCUCCAUATT; antisense UAUGGAGCGGUGCAGGUUCTT; chemistry not given here) |  |  | modulates apoptosis; also recorded: significant cell death in all cell lines
7 | siRNA ROCK: siRNA duplex, sense UACAUGCCUGGUGGAGAUCtt, antisense GAUCUCCACCAGGCAUGUAtt; same in Tables 9 and 11 (sense UACAUGCCUGGUGGAGAUCTT; antisense GAUCUCCACCAGGCAUGUATT; chemistry not given here) | 65.0 | undergo apoptosis | 
8 | siRNA Survivin: positive control siRNA, sense GAACUGGCCCUUCUUGGAGtt, antisense CUCCAAGAAGGGCCAGUUCtt (sense GAACUGGCCCUUCUUGGAGTT; antisense CUCCAAGAAGGGCCAGUUCTT; chemistry not given here) [reference compound] | 82.2 |  | induced cell death in all cell lines
